Patent US20260365671A1, “HETEROCYCLIC COMPOUND” (Takeda Pharmaceutical Company Limited, priority 2022, published 2026)

Key:
NF-κB pathway = experiment: TNF-α assay (THP-1 cells differentiated to macrophages with IFN-γ, NF-κB pathway activated with LPS; ELISA); assay type: cell-based, Human; settings: Homo sapiens, THP-1, THP-1 macrophages, compound 30 min, 50 ng/mL LPS 3 hours
How it was run: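 THP-1 cells differentiated with 25 ng/mL IFN-γ for 24 h, then 30 min with compounds in serum-free medium. NF-κB activated with 50 ng/mL LPS, 3 h at 37 °C. Supernatant TNF-α by ELISA; IC50 from four-parameter logistic fit of % inhibition.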

NLRP3 inflammasome = target: T1, NLRP3 inflammasome (Homo sapiens, UniProt Q96P20); experiment: IL-1β TR-FRET assay (THP-1 cells differentiated to macrophages with IFN-γ, LPS primed, ATP activated; HTRF); assay type: cell-based; settings: THP-1 macrophages, 50 ng/mL LPS priming, compound 30 min, 20 mM ATP 2 hours
T1 construct: IL-1beta HTRF
T1 sequence (Q96P20 whole entry): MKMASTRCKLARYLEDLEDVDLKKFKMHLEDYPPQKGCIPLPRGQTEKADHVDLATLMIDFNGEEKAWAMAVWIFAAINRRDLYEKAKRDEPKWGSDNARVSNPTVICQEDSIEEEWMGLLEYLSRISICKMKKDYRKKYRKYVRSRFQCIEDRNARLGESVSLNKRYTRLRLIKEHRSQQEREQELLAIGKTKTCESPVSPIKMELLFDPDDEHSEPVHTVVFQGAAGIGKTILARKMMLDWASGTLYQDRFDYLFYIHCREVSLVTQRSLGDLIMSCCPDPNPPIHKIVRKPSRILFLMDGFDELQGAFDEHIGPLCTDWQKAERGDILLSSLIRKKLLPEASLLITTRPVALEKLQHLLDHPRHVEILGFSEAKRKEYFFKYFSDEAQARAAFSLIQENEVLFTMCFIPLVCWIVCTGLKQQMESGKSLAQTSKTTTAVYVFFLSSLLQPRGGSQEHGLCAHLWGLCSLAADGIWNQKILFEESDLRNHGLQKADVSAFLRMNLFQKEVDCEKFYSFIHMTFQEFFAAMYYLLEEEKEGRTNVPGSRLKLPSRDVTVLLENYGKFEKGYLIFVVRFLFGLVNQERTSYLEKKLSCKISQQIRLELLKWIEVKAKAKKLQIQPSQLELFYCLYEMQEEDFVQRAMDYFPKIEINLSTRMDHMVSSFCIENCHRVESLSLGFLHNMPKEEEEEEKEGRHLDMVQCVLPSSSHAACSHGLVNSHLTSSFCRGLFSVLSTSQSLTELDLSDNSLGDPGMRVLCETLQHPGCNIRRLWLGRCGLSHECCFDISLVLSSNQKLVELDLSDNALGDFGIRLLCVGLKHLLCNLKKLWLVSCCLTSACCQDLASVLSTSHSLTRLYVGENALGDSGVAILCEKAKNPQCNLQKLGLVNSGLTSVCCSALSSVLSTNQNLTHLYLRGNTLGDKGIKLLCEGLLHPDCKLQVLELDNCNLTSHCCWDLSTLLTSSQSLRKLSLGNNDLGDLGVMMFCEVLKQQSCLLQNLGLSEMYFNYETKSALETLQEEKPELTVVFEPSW
How it was run: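 THP-1 cells differentiated with 25 ng/mL IFN-γ for 24 h, primed with 50 ng/mL LPS in serum-free medium for 24 h, then treated with compounds for 30 min before 20 mM ATP activation for 2 h at 37 °C. Secreted IL-1β quantified by HTRF; IC50 from logistic fit of % inhibition.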

SMILES	IC50 (NF-κB pathway)	IC50 (NLRP3 inflammasome)
CCc1cc(C)c(-n2cc3sc(N[C@@H]4C[C@@H](F)CN(C)C4)nc3n2)c(O)c1 [Example 60, 5-ethyl-2-(5-{[(3R,5R)-5-fluoro-1-methylpiperidin-3-yl]amino}-2H-pyrazolo[3,4-d][1,3]thiazol-2-yl)-3-methylphenol]	> 30000 nM	61 nM
Cc1cc(C)c(-n2cc3sc(N[C@@H]4C[C@@H](F)CN(C)C4)nc3n2)c(O)c1 [Example 3, 2-(5-{[(3R,5R)-5-fluoro-1-methylpiperidin-3-yl]amino}-2H-pyrazolo[3,4-d][1,3]thiazol-2-yl)-3,5-dimethylphenol]	> 30000 nM	8.2 nM
Cc1cc(F)cc(O)c1-n1cc2sc(N[C@@H]3CCCC[C@H]3O)nc2n1 [Example 6, 5-fluoro-2-(5-{[(1R,2R)-2-hydroxycyclohexyl]amino}-2H-pyrazolo[3,4-d][1,3]thiazol-2-yl)-3-methylphenol]	> 10000 nM	980 nM
